# Laboratory results: publication PMC8387461, “T cell receptor recognition of hybrid insulin peptides bound to HLA-DQ8” (Nature Communications, 2021)
# System: SKW-3 A3.10 TCR cells
# Assay: CD69 upregulation, SKW-3 A3.10 TCR cells
# Format: cell-based, human
# Conditions: CD69 MFI, flow cytometry; peptide-pulsed BLCL 9031, 20 h
# Description: For TCR transduced SKW-3 T cell lines (SKW-3-TCR), response to antigen was determined using flow cytometry to assess the level of upregulation of the T cell activation marker CD69. One hundred thousand BLCL 9031 cells (HLA-DQ8 + : HLA-DQA*03:01:01, HLA-DQB1*03:02) as APCs were incubated at 37 °C, 5% CO2 for 24 h with increasing concentrations of synthesised HIP ([…]; GLBiochem) or native C-peptide ([…]; GLBiochem) or 50 μg DQ8-glia-α1 (control) in 96 well round-bottomed plates. […] Before data acquisition, the samples were resuspended in 100 μl of FACS buffer and analysed via flow cytometry (LSR II; BD Biosciences; BD FACSDiva-8.0.1 software). Collected data were analysed using Flowjo v10.6.0 (FlowJo), and then Prism 9 (GraphPad Software). […] Using these settings, the median fluorescence intensity (MFI) corresponding to the relative level of CD69 expressed on the SKW-3-TCR.TCR cell lines was determined using Flowjo v10.6.0 software. The MFI of CD69 were analysed by using Prism 9 (GraphPad Software). […] Statistical significance was determined using P-values generated by t-test or one-way ANOVA multiple comparison of the MFI of no-peptide-stimulated SKW-3-TCR T cells versa the MFI of peptide-stimulated SKW-3-TCR T cells. […]
# expression. The fold increase in MFI CD69 expression was calculated by dividing the average MFI CD69 from each sample by the average MFI CD69 from BLCL 9031 (no […]
sequence,measurement,value
GQVELGGGNAVEVLK [HIP],sensitivity to HIP over C-peptide,~ 6000 fold
